{"source": "patent US12606719B2", "about": "“Methods and compositions comprising biodegradable cyanoacrylates” (FEMASYS, INC., priority 2017, dated 2026)", "origin": "cited, not measured here", "settings": "versus cyanoacrylates that degrade by chain scission"}
{"substance": "methoxypropyl cyanoacrylate", "values": [{"measurement": "hydrophilicity", "result": "more hydrophilic"}]}
